Measurements reported in ChEMBL document CHEMBL1126211, “Arylamides of hydroxylated isoquinolines as protein-tyrosine kinase inhibitors” (Bioorg Med Chem Lett, 1992).

Experiments:
[1] = biological target: Epidermal growth factor receptor (Homo sapiens, UniProt P00533); test: Inhibition of epidermal growth factor receptor (EGFR)
[2] = biological target: Tyrosine-protein kinase Lck (Homo sapiens, UniProt P06239); test: Inhibition of p56 lck tyrosine kinase
Tyrosine-protein kinase Lck, sequence (P06239 whole entry): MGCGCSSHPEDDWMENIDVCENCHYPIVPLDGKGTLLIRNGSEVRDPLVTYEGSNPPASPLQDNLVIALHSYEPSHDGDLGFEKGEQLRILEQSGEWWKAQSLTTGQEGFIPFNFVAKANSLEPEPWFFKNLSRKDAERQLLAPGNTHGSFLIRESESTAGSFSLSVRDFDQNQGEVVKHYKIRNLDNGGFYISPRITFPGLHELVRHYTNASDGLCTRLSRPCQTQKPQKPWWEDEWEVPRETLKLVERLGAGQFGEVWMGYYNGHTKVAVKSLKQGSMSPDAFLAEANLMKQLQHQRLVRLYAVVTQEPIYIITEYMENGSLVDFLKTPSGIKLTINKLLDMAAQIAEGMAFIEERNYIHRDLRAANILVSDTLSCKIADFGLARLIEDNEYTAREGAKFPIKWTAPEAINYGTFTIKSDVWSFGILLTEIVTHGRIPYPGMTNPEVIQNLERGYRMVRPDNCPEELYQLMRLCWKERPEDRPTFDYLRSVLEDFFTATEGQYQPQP

Epidermal growth factor receptor, sequence (P00533 whole entry): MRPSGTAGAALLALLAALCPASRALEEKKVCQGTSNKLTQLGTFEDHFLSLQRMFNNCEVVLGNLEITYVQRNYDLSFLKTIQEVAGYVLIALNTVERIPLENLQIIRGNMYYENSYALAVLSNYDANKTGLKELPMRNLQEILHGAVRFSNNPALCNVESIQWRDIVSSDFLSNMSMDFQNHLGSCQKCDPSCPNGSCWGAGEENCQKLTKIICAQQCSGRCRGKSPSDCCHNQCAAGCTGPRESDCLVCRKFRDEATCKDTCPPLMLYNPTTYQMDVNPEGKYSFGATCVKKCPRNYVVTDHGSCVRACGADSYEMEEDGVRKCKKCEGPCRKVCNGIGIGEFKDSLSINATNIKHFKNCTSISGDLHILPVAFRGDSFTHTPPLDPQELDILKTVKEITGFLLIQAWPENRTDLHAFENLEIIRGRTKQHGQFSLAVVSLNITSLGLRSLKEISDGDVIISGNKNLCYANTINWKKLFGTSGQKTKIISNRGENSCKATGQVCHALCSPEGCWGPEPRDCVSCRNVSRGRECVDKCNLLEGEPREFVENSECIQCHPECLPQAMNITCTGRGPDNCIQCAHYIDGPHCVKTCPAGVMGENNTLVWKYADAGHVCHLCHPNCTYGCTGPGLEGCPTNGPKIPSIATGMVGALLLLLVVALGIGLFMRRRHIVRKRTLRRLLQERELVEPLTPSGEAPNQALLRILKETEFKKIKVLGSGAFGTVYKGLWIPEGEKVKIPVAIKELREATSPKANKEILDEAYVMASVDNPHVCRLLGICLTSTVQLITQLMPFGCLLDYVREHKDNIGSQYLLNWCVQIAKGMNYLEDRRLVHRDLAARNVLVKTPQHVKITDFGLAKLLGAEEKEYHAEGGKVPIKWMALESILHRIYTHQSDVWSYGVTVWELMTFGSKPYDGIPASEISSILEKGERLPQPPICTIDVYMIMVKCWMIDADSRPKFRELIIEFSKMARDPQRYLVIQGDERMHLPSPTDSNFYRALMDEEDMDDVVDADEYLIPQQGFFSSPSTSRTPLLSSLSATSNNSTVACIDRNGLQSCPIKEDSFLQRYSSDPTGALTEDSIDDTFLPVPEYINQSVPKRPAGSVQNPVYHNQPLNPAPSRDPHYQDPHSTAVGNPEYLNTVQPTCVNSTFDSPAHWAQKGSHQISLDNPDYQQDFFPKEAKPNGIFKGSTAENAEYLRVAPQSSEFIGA

Row | IC50 [1] [µM] | IC50 [2] [µM] | Compound
1 | > 100 | 0.5 | NC(=O)c1cc2ccc(O)c(O)c2cn1
2 | 5.6 | 600 | O=C(Nc1ccccc1)c1cc2cc(O)c(O)cc2cn1
3 | > 100 | 1900 | NC(=O)c1cc2cc(O)c(O)cc2cn1
4 | 20 | – | N#C/C(=C\c1ccc(O)c(O)c1)C(N)=O
5 | 1.4 | 40 | O=C(NCCc1ccccc1)c1cc2ccc(O)c(O)c2cn1
6 | 1.4 | 1 | O=C(NCc1ccccc1)c1cc2ccc(O)c(O)c2cn1
7 | 3.1 | > 1000 | O=C(NCc1ccccc1)c1cc2cc(O)c(O)cc2cn1
8 | 7.7 | 1 | O=C(Nc1ccccc1)c1cc2ccc(O)c(O)c2cn1
